# Marks after values point to notes of the source that are not given here.
# Columns and labels:
# [1] = test system: ouabain induced arrhythmia (VT, VF, mortality); assay: Ouabain induced arrhythmia model in guinea pig; type: in vivo; details: for actual incidence of mortality (value in parenthesis): 60 min; for actual incidence of mortality (value in parenthesis) / actual incidence of VF (value in parenthesis) / actual incidence of VT (value in parenthesis): number of animals of the group; for % INCIDENCE OF MORTALITY: mortality at 60 min; for deaths due to conduction block (60 min), actual incidence (value in parenthesis) / deaths due to tachyarrhythmia (60 min), actual incidence (value in parenthesis): number of animals; for % INCIDENCE OF VF / % INCIDENCE OF VT: ouabain 240 μg/kg in three doses, observed one hour; for DEATHS DUE TO CONDUCTION BLOCK (60 MIN) Percentage / DEATHS DUE TO TACHYARRHYTHMIA (60 MIN) Percentage: percentage deaths out of total mortality
# Text: Method: Guinea pigs (Dunken Hartley) of either sex weighing between 400 and 500 g were used for the study. The animals were anesthetized with urethane (1.25 g/kg. i.p.). The left common carotid artery and left jugular vein were cannulated for arterial blood pressure monitoring and intravenous access respectively. Lead II electrocardiogram, arterial blood pressure, mean arterial blood pressure (MABP), heart rate were monitored throughout the experiment.
# After initial surgical preparations and allowing 30 minutes for the animal to stabilise the first dose of ouabain (90 μg/kg) was administered over a period of one minute. After the interval of thirty minutes, second dose of ouabain (60 μg/kg) was administered over a period of one minute. One minute after this dose, 0.5 ml saline (in control experiments) was administered over a period of one minute. After an interval of 10 minutes a third dose of ouabain (90 μg/kg) was administered over a period of one minute. […] The test compounds were administered to animals in test group in place of saline to evaluate their antiarrhythmic potential. From the ECG recordings, the incidence of VT, VF and mortality were recorded. The doses of ratios of sotalol isomers studied were 0.1, 0.5 and 2.5 mg/kg.
# Interpretation of ECG recordings: Minor disturbance in rhythm was not considered while evaluating ventricular tachyarrhythmias. A run of more than 3 ventricular ectopic beats having wide QRS complexes associated with partial haemodynamic collapse was considered as Ventricular Tachycardia (VT). Total morphological irregularity of repetitive complexes for at least six cycles associated with complete haemodynamic collapse was considered as Ventricular Fibrillation (VF). Successful arrhythmia protection was defined as no occurrence of VT and VF from the injection of saline/test drug till the end of the experiment.
# Statistics: Chi square test with continuity correction at 95% confidence limit was applied to find out the statistical significance between control and test groups for incidence of VT, VF and mortality. Whenever, any of the value in a cell was less than 5, Fischer's exact probability test was used.
# Results: Different ratios of sotalol in the dose range from 0.02 mg/kg to 12.5 mg/kg were studied in individual groups of animals. In all 18 groups were studied and at least 6 animals were used in each group. In control animals ouabain 240 μg/kg in three divided doses induced reproducible ventricular tachyarrhythmias in guinea pigs. It was observed that ventricular arrhythmias appeared after the administration of the third dose. Guinea pigs which responded early i.e. before or within 1 min. of administration of the second dose, were considered early responders and were not included in the study. […] In the study, control experiments were carried out randomly interspersed in test groups. Among the 42 control animals the incidence of VT was 81%, incidence of VF was 71.4% and the incidence of mortality at 60 minutes was 61.9%.
# [2] = test system: beta adrenergic blockade, isolated right auricle preparation of rabbit; assay: Beta blocking potency (pA2 against isoprenaline) in isolated rabbit right auricle; details: isoprenaline chronotropic response, Schild's plot, listed as 4:1
# Description: Estimation of the beta blockade of various ratios of d- and l- isomers of sotalol was carried out in the isolated right auricle preparation of rabbit. The spontaneously beating right atrium was dissected and mounted in a 20 ml tissue bath. The resting tension on the atria was set at 1 g. The contractions were recorded using a force displacement transducer. The spontaneous contractions of the right atria were recorded isometrically and the heart rate was obtained as a derived parameter using a ratemeter that gave the output in beats per minute. Six different ratios of d and l isomers were investigated (1:1, 2:1, 3:1, 4:1, 5:1 and 1:0). Dose-response-curves (DRC) for isoprenaline in the isolated atria, using the chronotropic response were determined by cumulative addition of isoprenaline. The pA2 values of each of the ratios were estimated using the classical Schild's plot (Schild, 1957) and the values are shown in Table 1.
# [3] = guinea pig, in vivo, listed as 4:1 ratio (d:l)
structure (smiles),measurement,setting,value
"CC(C)NCC(O)c1ccc(NS(C)(=O)=O)cc1 (stereo not drawn) [4:1 RATIO, N-[4-[1-hydroxy-2-[(1-methylethyl)amino]ethyl]phenyl] methane sulfonamide]",actual incidence of mortality (value in parenthesis),[1]; 0.5 mg/kg,(2)
same,% INCIDENCE OF MORTALITY,[1]; 0.5 mg/kg,33.3%
same,"deaths due to conduction block (60 min), actual incidence (value in parenthesis)",[1]; 0.5 mg/kg,(1)
same,"deaths due to tachyarrhythmia (60 min), actual incidence (value in parenthesis)",[1]; 0.5 mg/kg,(1)
same,actual incidence of VF (value in parenthesis),[1]; 0.5 mg/kg,(6)
same,actual incidence of VT (value in parenthesis),[1]; 0.5 mg/kg,(6)
same,% INCIDENCE OF VF,[1]; 0.5 mg/kg,100.0%
same,% INCIDENCE OF VT,[1]; 0.5 mg/kg,100.0%
same,DEATHS DUE TO CONDUCTION BLOCK (60 MIN) Percentage,[1]; 0.5 mg/kg,50.0%
same,DEATHS DUE TO TACHYARRHYTHMIA (60 MIN) Percentage,[1]; 0.5 mg/kg,50.0%
same,protection against VF,[1]; 2.5 mg/kg,some protection
same,protection against ouabain induced VT,[1]; 2.5 mg/kg,some protection
same,actual incidence of mortality (value in parenthesis),[1]; 2.5 mg/kg,(2)
same,protection against arrhythmias (VT and VF),"[1]; 2.5 mg/kg, listed as 4:1",could not protect
same,% INCIDENCE OF MORTALITY,[1]; 2.5 mg/kg,33.3%
same,% INCIDENCE OF MORTALITY,"[1]; 2.5 mg/kg, listed as 4:1",33.3%
same,"deaths due to conduction block (60 min), actual incidence (value in parenthesis)",[1]; 2.5 mg/kg,(2)
same,"deaths due to tachyarrhythmia (60 min), actual incidence (value in parenthesis)",[1]; 2.5 mg/kg,(0)
same,actual incidence of VF (value in parenthesis),[1]; 2.5 mg/kg,(2)
same,actual incidence of VT (value in parenthesis),[1]; 2.5 mg/kg,(2)*
same,% INCIDENCE OF VF,[1]; 2.5 mg/kg,33.3%
same,% INCIDENCE OF VT,[1]; 2.5 mg/kg,33.3%
same,% INCIDENCE OF VF,"[1]; 2.5 mg/kg, listed as 4:1",33.3%
same,% INCIDENCE OF VT,"[1]; 2.5 mg/kg, listed as 4:1",33.3%
same,DEATHS DUE TO CONDUCTION BLOCK (60 MIN) Percentage,[1]; 2.5 mg/kg,100.0%
same,DEATHS DUE TO TACHYARRHYTHMIA (60 MIN) Percentage,[1]; 2.5 mg/kg,00.0%
same,protection against arrhythmias (VT and VF),[1]; 12.5 mg/Kg,could protect
same,actual incidence of mortality (value in parenthesis),[1]; 12.5 mg/kg,(4)
same,% INCIDENCE OF MORTALITY,[1]; 12.5 mg/kg,66.6%
same,% INCIDENCE OF MORTALITY,"[1]; 12.5 mg/kg, listed as 4:1 ratio",66.6%
same,"deaths due to conduction block (60 min), actual incidence (value in parenthesis)",[1]; 12.5 mg/kg,(3)
same,"deaths due to tachyarrhythmia (60 min), actual incidence (value in parenthesis)",[1]; 12.5 mg/kg,(1)
same,actual incidence of VF (value in parenthesis),[1]; 12.5 mg/kg,(0)*
same,actual incidence of VT (value in parenthesis),[1]; 12.5 mg/kg,(0)*
same,% INCIDENCE OF VF,[1]; 12.5 mg/kg,00.0%
same,% INCIDENCE OF VT,[1]; 12.5 mg/kg,00.0%
same,DEATHS DUE TO CONDUCTION BLOCK (60 MIN) Percentage,[1]; 12.5 mg/kg,75.0%
same,DEATHS DUE TO TACHYARRHYTHMIA (60 MIN) Percentage,[1]; 12.5 mg/kg,25.0%
same,mortality,[1]; effective dose of 12.5 mg/kg,significantly high
same,dose at which complete protection against VT was observed,[1]; [3],12.5 mg/kg
same,dose that completely protected against VF,[1]; [3],12.5 mg/kg
same,pA2 Mean,[2],6.01

# Reference: patent US20010004643A1, “Pharmaceutical composition with sotalol combination and their use in treatment of cardiac ailments” (priority 1999, published 2001)
